ChEMBL document CHEMBL1177643, “Synthesis, DNA-binding ability and anticancer activity of benzothiazole/benzoxazole-pyrrolo[2,1-c][1,4]benzodiazepine conjugates” (Bioorg Med Chem, 2010)

Tested on: Calf thymus DNA
Assay: Binding affinity to calf thymus duplex-form DNA assessed as melting temperature at 1:5 compound/DNA ratio after 18 hrs
Assay type: nucleic-acid assay
Details: Bos taurus

ΔTm: 2.3 °C
Compound: COc1cc2c(cc1OCCCCC(=O)Nc1ccc(-c3nc4ccc(F)cc4s3)cc1)N=C[C@@H]1CCCN1C2=O
